Consider 2 molecules from US10005758B2, “Process for the preparation of 3-(3-chloro-1H-pyrazol-1-yl)pyridine” (Dow AgroSciences LLC, priority 2014, dated 2018).

In test [1] the test system is Green Peach Aphid (Myzus persicae) (MYZUPE). Put plainly: Bioassay on Green Peach Aphid (GPA), foliar spray on infested cabbage seedlings. It is filed as in vivo. Particulars: 72 h, 200 ppm foliar spray on cabbage, live aphids counted after three days, read-out: MYZUPE rating (% Mortality; Abbott corrected % control). Here is the method:
Example A Bioassays on Green Peach Aphid (“GPA”) (Myzus persicae) (MYZUPE.)
Several molecules disclosed herein were tested against GPA using procedures described below.
Cabbage seedling grown in 3-in pots, with 2-3 small (3-5 cm) true leaves, were used as test substrate. The seedlings were infested with […] (wingless adult and nymph stages) one day prior to chemical application. Four pots with individual seedlings were used for each treatment. Test compounds (2 mg) were dissolved in 2 mL of acetone/MeOH (1:1) solvent, forming stock solutions of 1000 ppm test compound. The stock solutions were diluted 5× with 0.025% Tween 20 in water to obtain the solution at 200 ppm test compound. A hand-held aspirator-type sprayer was used for spraying a solution to both sides of the cabbage leaves until runoff. Reference plants (solvent check) were sprayed with the diluent only containing […] acetone/MeOH (1:1) solvent. Treated plants were held in a holding room for three days at approximately 25° C. and ambient relative humidity (RH) prior to grading. Evaluation was conducted by counting the number of live aphids per plant under a microscope. Percent Control was measured by using Abbott's correction formula (W. S. Abbott, “A Method of Computing the Effectiveness of an Insecticide” J. Econ. Entomol 18 (1925), pp. 265-267) as follows. Corrected % Control=100*(X−Y)/X […]

For test [2], the system named is Sweetpotato Whitefly Crawler (Bemisia tabaci) (BEMITA). Put plainly: Bioassay on Sweetpotato Whitefly Crawler, foliar spray on infested cotton plants. It counts as in vivo. Particulars: 200 ppm foliar spray on cotton, live nymphs counted after 8-9 days, read-out: BEMITA rating (% Mortality; Abbott corrected % control). From the text:
Example B Bioassays on Sweetpotato Whitefly Crawler (Bemisia tabaci) (BEMITA.)
Cotton plants grown in 3-inch pots, with 1 small (3-5 cm) true leaf, were used at test substrate. The plants were placed in a room with whitely adults. Adults were allowed to deposit eggs for 2-3 days. After a 2-3 day egg-laying period, plants were taken from the adult whitefly room. Adults were blown off leaves using a hand-held Devilbliss sprayer (23 psi). Plants with egg infestation (100-300 eggs per plant) were placed in a holding room for 5-6 days at 82° F. and 50% RH for egg hatch and crawler stage to develop. Four cotton plants were used for each treatment. Compounds (2 mg) were dissolved in 1 mL of acetone solvent, forming stock solutions of 2000 ppm. The stock solutions were diluted 10× with 0.025% Tween 20 in water to obtain a test solution at 200 ppm. A hand-held Devilbliss sprayer was used for spraying a solution to both sides of cotton leaf until runoff. Reference plants (solvent check) were sprayed with the diluent only. Treated plants were held in a holding room for 8-9 days at approximately 82° F. and 50% RH prior to grading. Evaluation was conducted by counting the number of live nymphs per plant under a microscope.

The mortality is the share of the test organisms that died. With `CCOC(=O)C1CC(=O)NN1c1cccnc1` (stereo not shown) [Example Compound 10a, Ethyl 5-oxo-2-(pyridin-3-yl)pyrazolidine-3-carboxylate], the mortality at 200 ppm in test [1] and in test [2] was 0 to 80% each time.

As to `CCOC(=O)C1CC(Cl)=NN1c1cccnc1` (stereo not shown) [Example Compound 10b, Ethyl 3-chloro-1-(pyridin-3-yl)-4,5-dihydro-1H-pyrazole-5-carboxylate], the mortality at 200 ppm in test [1] and in test [2] was 0 to 80% throughout.
